Laboratory results: patent publication US20090060984A1, “ANIONIC SURFACTANTS LETHAL TO GRAM-POSITIVE BACTERIA” (priority 2007, published 2009)
Where “and” joins values, the source holds several entries; their conditions need not be identical. Equal entries are not always repeated. Where two headings read alike, the source gives them in different places.

Key:
Staphylococcus aureus = assay: Growth on surfactant/TSA agar plates; type: cell-based
Bacillus subtilis = assay: Growth on surfactant/TSA agar plates; type: cell-based
Streptococcus viridans = assay: Growth on surfactant/TSA agar plates; type: cell-based; settings: Streptococcus viridans strain EM8
Streptococcus bovis = assay: Growth on surfactant/TSA agar plates; type: cell-based; settings: Streptococcus bovis strain EM12
Enterococcus fecalis = assay: Growth on surfactant/TSA agar plates; type: cell-based
[1] = system: Staphylococcus epidermidis; assay: Growth on surfactant/TSA agar plates; type: cell-based; settings: Staphylococcus epidermidis strain EM3/ATCC12228
Streptococcus pyogenes = assay: Growth on surfactant/TSA agar plates; type: cell-based; settings: Streptococcus pyogenes strain EM14
Streptococcus agalactiae = assay: Growth on surfactant/TSA agar plates; type: cell-based; settings: Streptococcus agalactiae strain EM13
Micrococcus luteus = assay: Growth on surfactant/TSA agar plates; type: cell-based; settings: Micrococcus luteus strain EM17
Serratia marcescens = assay: Growth on surfactant/TSA agar plates; type: cell-based; settings: the one Gram-negative not resistant
Method: This solution was then aliquoted into sterile petri dishes, approximately 25 mL per plate, and allowed to solidify. The organisms were grown in 5 mL of Trypticase Soy Broth. The sterile broth was inoculated with a single isolated colony from a stock culture and allowed to incubate in a shaking water bath at 37° C. for 8-10 hours. The estimated concentration was about 10^9 CFU/mL. Some plates were tested with a 1:100 dilution of these cultures to arrive at an approximate concentration of 10^7 CFU/mL. Then, 10 μL of each overnight culture was pipetted directly onto the surface of the surfactant/TSA plates, which were then allowed to incubate at 37° C. for 24 hours. Results were based on the presence or absence of bacterial growth on the surface of the agar.

B. subtilis = assay: Sodium surfactant polyurethane coated microscope slides, surviving bacteria; settings: for CFU/mL B. subtilis: 30% sodium surfactant polyurethane coated microscope slides, two data sets
S. aureus [2] = assay: as above; settings: for CFU/mL S. aureus: 30% sodium surfactant polyurethane coated microscope slides, two data sets
E. coli = type: cell-based, Escherichia coli; settings: 24 h contact time
Method: Escherichia coli ATCC 11229 (Culti-loops, Remel Europe, Dartford, Kent, UK) and Pseudomonas aeruginosa ATCC 15442 (Cuti-loops, Remel Europe, Dartford, Kent, UK) were selected as model Gram-negative organisms for the challenge testing of the antimicrobial coatings. Each bacterial strain was streaked for isolated colonies on Tryptic Soy Agar (TSA) plates (Difco, Becton Dickinson, Sparks, Md., U.S.A.) and incubated at 37° C. for 12 to 18 hours. Broth cultures were prepared by first picking 1-2 isolated colonies from TSA plates and inoculating 5 mL Tryptic Soy Broth (TSB; Difco, Becton Dickinson, Sparks, Md., U.S.A.) in a 16 mm test tube. This culture was grown in a shaking water bath at 150 RPM for 8 hours at 37° C. After the eight hours, 125 μL of this culture was added to 50 mL of TSB in a side-arm Klett flask and grown for approximately 8 hours in shaking water bath (150 RPM) at 37° C. The bacterial broths were grown to an A590 of 1.2-1.5, which correlated to approximately 10^9 CFU (colony forming units)/mL. 25 mL of this broth were transferred to a sterile 30 mL Oakridge tube and centrifuged at 12,000×g for 10 minutes at 4° C. (Sorval SS34 rotor) to pelletize the bacteria. The bacterial pellet was washed once and resuspended in 25 mL of phosphate buffer solution (PBS; BBL, FTA Hemaglutination Buffer, Becton Dickinson, Sparks, Md., U.S.A.). The suspension was diluted with PBS to achieve the target range of 10^5-10^6 CFU/mL and used to inoculate the slides containing antibacterial coatings.
Xylene/methanol (5:1 by weight) is used to dissolve the silver surfactants to facilitate homogeneously mixing with the alkyd resin composition.
A minus sign (−) denotes no growth, a plus sign (+) denotes confluent growth, and a capital P (P) denotes […].
Xylene/methanol (5:1 by weight) is used to dissolve the silver surfactants to facilitate homogeneously mixing with the acrylic resin composition.
The same laboratory experimental solvent based acrylic paint described in Example 34 is used to challenge E. coli by adding various levels of the invention silver anionic surfactants as described in Example 34.
A commercially available 2K epoxy resin paint is obtained from a local paint store (Sherwin Williams High Solids Epoxy Tile Clad HS; Part A B62WC11; Part B B60VZ75, The Sherwin Williams Company) and the same silver anionic surfactants described in Example 35 are used to prepare test coatings on microscope slides containing various levels of silver ion. These surfactants are dissolved in xylene/methanol (5:1 by weight) to facilitate their quantitative addition to the coating mixture.

S. aureus [3] = type: cell-based, Staphylococcus aureus; settings: laboratory acrylic clearcoat, 24 h contact time
Text: A laboratory experimental solvent based acrylic paint is formulated and then used to challenge S. aureus by adding various levels of the invention silver anionic surfactants as described in Example 33. A binder is made by solution polymerization of butyl acrylate (25% w/w), methylmethacrylate (73.5% w/w), and methacrylic acid (1.5% w/w) in amylacetate using thermal initiation. This solution polymer is then used to make a 60% solids clearcoat binder in xylene/methanol (5:1 by weight). The silver anionic surfactants are dissolved in this same xylene/methanol mixture prior to addition to the clearcoat.

[4] = Staphylococcus aureus strain ATCC6538
[5] = Staphylococcus aureus strain EM24/ATCC25923
[6] = Bacillus subtilis strain ATCC33
[7] = Enterococcus fecalis strain EM19 (first listing)
[8] = Enterococcus fecalis strain EM19 (second listing)
[9] = after 12 and 24 hours of exposure, polyurethane coated slides

CC(C)CC(C)OC(=O)CC(C(=O)OC(C)CC(C)C)S(=O)(=O)[O-].[Na+] (stereo not shown) [Compound S4]
− (2×) and +: No Growth(−)/Full Growth(+), replicate columns (Micrococcus luteus)
− and +: No Growth(−)/Full Growth(+), replicate columns (Bacillus subtilis; [6]) | No Growth(−)/Full Growth(+), replicate columns (Streptococcus agalactiae)
−: No Growth(−)/Full Growth(+), replicate columns (Streptococcus bovis) | No Growth(−)/Full Growth(+), replicate columns (Streptococcus pyogenes)
+: No Growth(−)/Full Growth(+), replicate columns (Staphylococcus aureus; [4]) | No Growth(−)/Full Growth(+), replicate columns (Staphylococcus aureus; [5]) | No Growth(−)/Full Growth(+), replicate columns (Bacillus subtilis; Bacillus subtilis strain EM27) | No Growth(−)/Full Growth(+), replicate columns (Streptococcus viridans) | No Growth(−)/Full Growth(+), replicate columns (Enterococcus fecalis; [7]) | No Growth(−)/Full Growth(+), replicate columns (Enterococcus fecalis; [8]) | No Growth(−)/Full Growth(+), replicate columns [1]

O=C(CC(C(=O)OC1CCCCC1)S(=O)(=O)[O-])OC1CCCCC1.[Na+] (stereo not shown) [Compound S5]
+ and − (2×): No Growth(−)/Full Growth(+), replicate columns (Micrococcus luteus)
− (2×) and +: No Growth(−)/Full Growth(+), replicate columns (Streptococcus agalactiae)
−: No Growth(−)/Full Growth(+), replicate columns (Bacillus subtilis; [6]) | No Growth(−)/Full Growth(+), replicate columns (Streptococcus bovis) | No Growth(−)/Full Growth(+), replicate columns (Streptococcus pyogenes)
− and +: No Growth(−)/Full Growth(+), replicate columns (Bacillus subtilis; Bacillus subtilis strain EM27)
+: No Growth(−)/Full Growth(+), replicate columns (Staphylococcus aureus; [4]) | No Growth(−)/Full Growth(+), replicate columns (Staphylococcus aureus; [5]) | No Growth(−)/Full Growth(+), replicate columns (Streptococcus viridans) | No Growth(−)/Full Growth(+), replicate columns (Enterococcus fecalis; [7]) | No Growth(−)/Full Growth(+), replicate columns (Enterococcus fecalis; [8]) | No Growth(−)/Full Growth(+), replicate columns [1]

CCCCCCCCCCCCCOC(=O)CC(C(=O)OCCCCCCCCCCCCC)S(=O)(=O)[O-].[Na+] (stereo not shown) [Compound S6]
− (2×) and +: No Growth(−)/Full Growth(+), replicate columns (Bacillus subtilis; Bacillus subtilis strain EM27) | No Growth(−)/Full Growth(+), replicate columns (Streptococcus agalactiae)
+ (2×) and −: No Growth(−)/Full Growth(+), replicate columns (Bacillus subtilis; [6])
−: No Growth(−)/Full Growth(+), replicate columns (Streptococcus bovis) | No Growth(−)/Full Growth(+), replicate columns (Streptococcus pyogenes)
+: No Growth(−)/Full Growth(+), replicate columns (Staphylococcus aureus; [4]) | No Growth(−)/Full Growth(+), replicate columns (Staphylococcus aureus; [5]) | No Growth(−)/Full Growth(+), replicate columns (Streptococcus viridans) | No Growth(−)/Full Growth(+), replicate columns (Enterococcus fecalis; [7]) | No Growth(−)/Full Growth(+), replicate columns (Enterococcus fecalis; [8]) | No Growth(−)/Full Growth(+), replicate columns [1] | No Growth(−)/Full Growth(+), replicate columns (Micrococcus luteus)

CCCCC(CC)COC(=O)CC(C(=O)OCC(CC)CCCC)S(=O)(=O)[O-].[Na+] (stereo not shown) [NaAOT, Sodium bis(2-ethylhexyl)sulfosuccinate]
killed all: Killing of B. subtilis (B. subtilis; [9]) | Killing of S. aureus (S. aureus [2]; [9])
0 CFU/mL: CFU/mL B. subtilis (B. subtilis; exposure 12 hours) | CFU/mL B. subtilis (B. subtilis; exposure 24 hours) | CFU/mL S. aureus (S. aureus [2]; exposure 12 hours) | CFU/mL S. aureus (S. aureus [2]; exposure 24 hours)
except for Serratia marcescens: Effect on Serratia marcescens (Serratia marcescens)

silver linearalkanebenzene sulfonate [AgLABS]
0.03 % Ag w/w: Silver level partially effective (E. coli; commercial solvent borne acrylic paint)
0.03%: Silver level with partial inhibition (E. coli; laboratory solvent based acrylic paint)
0.03 % w/w: Silver level giving complete inhibition of growth (E. coli; commercial 2K epoxy paint)
+: E. coli growth on coating (E. coli; alkyd resin paint, 0.0012 weight % Ag in coating) | E. coli growth on coating (E. coli; alkyd resin paint, 0.003 weight % Ag in coating) | E. coli growth on coating (E. coli; alkyd resin paint, 0.006 weight % Ag in coating) | E. coli growth on coating (E. coli; alkyd resin paint, 0.012 weight % Ag in coating) | E. coli growth on coating (E. coli; commercial 2K epoxy paint, 0.0012 weight % Ag in coating) | E. coli growth on coating (E. coli; commercial 2K epoxy paint, 0.003 weight % Ag in coating) | E. coli growth on coating (E. coli; commercial 2K epoxy paint, 0.006 weight % Ag in coating) | E. coli growth on coating (E. coli; commercial 2K epoxy paint, 0.012 weight % Ag in coating) | E. coli growth on coating (E. coli; commercial solvent borne acrylate paint, 0.0012 weight % Ag in coating) | E. coli growth on coating (E. coli; commercial solvent borne acrylate paint, 0.003 weight % Ag in coating) | E. coli growth on coating (E. coli; commercial solvent borne acrylate paint, 0.006 weight % Ag in coating) | E. coli growth on coating (E. coli; commercial solvent borne acrylate paint, 0.012 weight % Ag in coating) | E. coli growth on coating (E. coli; laboratory solvent borne acrylate paint, 0.0012 weight % Ag in coating) | E. coli growth on coating (E. coli; laboratory solvent borne acrylate paint, 0.003 weight % Ag in coating) | E. coli growth on coating (E. coli; laboratory solvent borne acrylate paint, 0.006 weight % Ag in coating) | E. coli growth on coating (E. coli; laboratory solvent borne acrylate paint, 0.012 weight % Ag in coating)
−: E. coli growth on coating (E. coli; alkyd resin paint, 0.03 weight % Ag in coating) | E. coli growth on coating (E. coli; alkyd resin paint, 0.06 weight % Ag in coating) | E. coli growth on coating (E. coli; alkyd resin paint, 0.12 weight % Ag in coating) | E. coli growth on coating (E. coli; commercial 2K epoxy paint, 0.03 weight % Ag in coating) | E. coli growth on coating (E. coli; commercial 2K epoxy paint, 0.06 weight % Ag in coating) | E. coli growth on coating (E. coli; commercial 2K epoxy paint, 0.12 weight % Ag in coating) | E. coli growth on coating (E. coli; commercial solvent borne acrylate paint, 0.06 weight % Ag in coating) | E. coli growth on coating (E. coli; commercial solvent borne acrylate paint, 0.12 weight % Ag in coating) | E. coli growth on coating (E. coli; laboratory solvent borne acrylate paint, 0.06 weight % Ag in coating) | E. coli growth on coating (E. coli; laboratory solvent borne acrylate paint, 0.12 weight % Ag in coating)
0.012 % Ag w/w and 0.006 % Ag w/w: Silver level with partial growth (S. aureus [3])
